Data as given in US10495796B2, “Near-infrared cut filter” (AGC INC., priority 2012, dated 2019).
Each block holds one compound with its values, some of them ahead of it.

Key:
Type in all cases: physicochemical
[1] = Solubility of dye to organic solvent; details: 50° C., mass % of the dye to the mass of the entire solution; for Solubility to organic solvent: MIBK: methyl isobutyl ketone
Procedure: Regarding the dyes (A11-1) to (A11-10) and (A11-20) to (A11-27) obtained above, solubility to organic solvent was evaluated as follows.
Three kinds of solvents, cyclohexanone, methyl isobutyl ketone (MIBK), toluene, were used as the organic solvent in the solubility test. Note that in Table 3, % is mass % of the dye to the mass of the entire solution. Further, the temperature of each organic solvent in the solubility test was 50° C.

[2] = Absorption characteristics: transmission spectrum of near-infrared absorbing layer of NIR filter (UV-visible spectrophotometer)
Procedure: Further, the transmittance of the near-infrared absorbing layer can be measured by using an ultraviolet visible light spectrophotometer. For example, when the near-infrared absorbing layer is provided on a glass substrate, the transmittance is calculated by subtracting the transmittance of only the glass substrate. Note that the transmittance of light of the near-infrared absorbing layer refers to, unless otherwise stated, a ratio to light incident from a direction orthogonal to a main surface of a sample, the ratio of this light traveling straight inside the sample and transmitted to an opposite side. Further, when the transmittance is measured by making light incident from a direction other than the direction orthogonal to the main surface of the sample in the measurement of transmittance of light, an angle made by a straight line indicating the direction of the incident light to a line orthogonal to the main surface is called an incident angle.
In the condition (ii-3), the value calculated by nd(B)×(λa−λc) (hereinafter, this value may also be described as “Is value”) is a value to be an index indicating steepness of the absorption curve in the vicinity of the boundary between the visible light region and the near-infrared region with respect to a transmission spectrum of the near-infrared absorbing layer. When this value is 115 or less, the absorption curve in the vicinity of the boundary between the visible light region and the near-infrared region is steep with respect to the near-infrared absorbing layer, which can be said as preferable for the NIR filter.
That is, with respect to the transmission spectrum of the near-infrared absorbing layer, the smaller the difference (λa−λc) between the shortest wavelength λa with transmittance of 1% in the region of 650 nm to 800 nm and the wavelength λc with transmittance of 70% on a shorter wavelength side than the λa, the steeper the absorption curve in the vicinity of the boundary between the visible light region and the near-infrared region. Here, λa−λc also depends on a wavelength width having transmittance of 1% or less (λb−λa; λb is the longest wavelength with transmittance of 1% in the wavelength region of 650 nm to 800 nm). Accordingly, in order to compare and evaluate the steepness of the absorption curve in the above region of the transmission spectrum of the near-infrared absorbing layer, λb−λa is fixed to 30 nm. That is, λb−λa of the near-infrared absorbing layer which the present filter has is not limited to 30 nm.
Further, in the Is value, (λa−λc) is multiplied by the refractive index nd(B) of the transparent resin (B) contained in the near-infrared absorbing layer as a coefficient. This is to standardize the difference in steepness among resins.
Regarding transmittance (%/nm) of the NIR filters 1 to 109 obtained above, transmission spectra were measured and calculated by using an ultraviolet visible light spectrophotometer (U-4100 type spectrophotometer made by Hitachi High-Technologies Corporation). Analysis results of transmission spectra of the near-infrared absorbing layers which the NIR filters have are presented in Table 4, Table 5 and Table 6 for the NIR filters 1 to 25, 26 to 51, 52 to 75, respectively, and are presented in Table 7 and Table 8 for the NIR filters 76 to 94, 95 to 109, respectively. In Table 4 to Table 8, the ratios (parts by mass) of dyes to 100 parts by mass of the transparent resin (B) and film thicknesses of the near-infrared absorbing layers are described together.
Further, conditions of preferred transmission spectra of the near-infrared absorbing layers in the present filter and Is values obtained by the formula: nd(B)×(λa-λc) described in above (ii-3) are described in Table 4 to Table 8 together with λa in the condition (ii-1) and λb-λa in the condition (ii-2). Note that values described in Table 4 to Table 8 are values obtained by subtracting transmittance of a glass plate from transmittance of an NIR filter. […]

[3] = Transmittance and 20% shift (incident angle dependency) of NIR filter having selected wavelength shielding layer; details: NIR filter 110: dye 3.0 parts by mass per 100 of polyester resin B-OKP2 (nd(B) 1.64), with selected wavelength shielding layer and antireflection layer
Procedure: In the present filter, the visible light transmittance is secured sufficiently by satisfying the condition (iv-1), and moreover, angle dependency which the dielectric multilayer film has is solved, and the light shielding property of the near-infrared region is secured sufficiently in a wide wavelength region without being affected by the influence of the incident angle by satisfying the conditions (iv-2) and (iv-3). • Here, in the condition (iv-3), the angle dependency is evaluated by using a shift of wavelength in 20% transmittance when the incident angle is 0 degree and when it is 30 degrees as an index.
Transmittance of the NIR filter of Example 110 was measured as transmittance of light incident from a direction orthogonal to a main surface, that is, light with an incident angle of 0 degree and transmittance of light incident from a direction making an angle of 30 degrees relative to a line orthogonal to the main surface, that is, light with an incident angle of 30 degrees by using an ultraviolet visible light spectrophotometer (U-4100 type spectrophotometer made by Hitachi High-Technologies Corporation), so as to obtain a transmission spectrum. A 20% shift (30 degrees) is a difference between a value of a wavelength with transmittance of 20% of light with an incident angle of 0 degree (indicated as “λ20-0”) and a value of a wavelength with transmittance of 20% of light with an incident angle of 30 degrees (indicated as “λ20-30”).
Moreover, a transmission spectrum of light with an incident angle of 40 degrees was obtained similarly. Further, the difference between a value of a wavelength with transmittance of 20% of light with an incident angle of 0 degree (λ20-0) and a value of a wavelength with transmittance of 20% of light with an incident angle of 40 degrees (indicated as “λ20-40”) was obtained as a 20% shift (40 degrees).
The near-infrared absorbing layer was formed on a glass plate similarly to Example 7 except that a glass plate on which the selected wavelength shielding layer is formed was used on a face opposite to an application face of the coating liquid for forming the near-infrared absorbing layer. Moreover, the antireflection layer was formed on the near-infrared absorbing layer, so as to obtain the NIR filter 110. The film thickness in the selected wavelength shielding layer in its entirety was approximately 8.9 μm, and the film thickness in the antireflection layer in its entirety was approximately 0.34 μm. The transmittance of the obtained NIR filter 110 was measured, and 20% shifts (30 degrees) and (40 degrees) were obtained. Results thereof are presented in Table 9 together with structures of the near-infrared absorbing layer. FIG. 6 illustrates transmission spectra of light with incident angles of 0 degree, 30 degrees and 40 degrees of the wavelength region of 660 nm to 690 nm in the NIR filter 110 by a solid line, a dotted line and a dashed line, respectively.

[4] = transparent resin acrylic resin BR50, nd(B) 1.56, film thickness 2.3 μm
[5] = transparent resin polycarbonate EP5000, nd(B) 1.63, film thickness 2.4 μm
[6] = transparent resin polycarbonate SP3810, nd(B) 1.63, film thickness 1.0 μm
[7] = transparent resin polycarbonate SP3810, nd(B) 1.63, film thickness 2.8 μm

Solubility to organic solvent: Cyclohexanone [1]: 10%< mass %
Solubility to organic solvent: MIBK [1]: 3.00% mass %
Solubility to organic solvent: Toluene [1]: 10%< mass %
430 nm to 600 nm Average transmittance [2, 4]: 96.1%
Is value (nd(B)×(λa-λc)) [2, 4]: 101.5
λa [2, 4]: 695 nm
λa − λc [2, 4]: 65 nm
λb [2, 4]: 715 nm
λb − λa [2, 4]: 30 nm
λc [2, 4]: 630 nm
λmax [2, 4]: 712 nm
430 nm to 600 nm Average transmittance [2, 5]: 96.9%
Is value (nd(B)×(λa-λc)) [2, 5]: 104.5
λa [2, 5]: 700 nm
λa − λc [2, 5]: 64 nm
λb [2, 5]: 730 nm
λb − λa [2, 5]: 30 nm
λc [2, 5]: 636 nm
λmax [2, 5]: 715 nm
430 nm to 600 nm Average transmittance [2, 6]: 95.8%
Is value (nd(B)×(λa-λc)) [2, 6]: 106.3
λa [2, 6]: 700 nm
λa − λc [2, 6]: 65 nm
λb [2, 6]: 730 nm
λb − λa [2, 6]: 30 nm
λc [2, 6]: 635 nm
λmax [2, 6]: 712 nm
430 nm to 600 nm Average transmittance [2, 7]: 96.5%
Is value (nd(B)×(λa-λc)) [2, 7]: 104.6
λa [2, 7]: 700 nm
λa − λc [2, 7]: 64 nm
λb [2, 7]: 730 nm
λb − λa [2, 7]: 30 nm
λc [2, 7]: 636 nm
λmax [2, 7]: 716 nm
Compound: CCCCC(CC)C(=O)Nc1cc2c(cc1C1=C([O-])C(=c3cc4c(cc3NC(=O)C(CC)CCCC)=[N+](C(C)C)C(C)C4(C)C)C1=O)C(C)(C)C(C)N2C(C)C (stereo not drawn) [Example A11-7]
20% shift 30 degrees (λ20-0-λ20-30) [3]: 1 nm
20% shift 40 degrees (λ20-0-λ20-40) [3]: 3 nm
20%-transmittance wavelength of 0-degree incident angle (λ20-0) [3]: 668 nm
20%-transmittance wavelength of 30-degree incident angle (λ20-30) [3]: 667 nm
20%-transmittance wavelength of 40-degree incident angle (λ20-40) [3]: 665 nm
Transmittance 420 nm to 620 nm (average) [3]: 88.6%
Transmittance 700 nm to 1100 nm (average) [3]: 0.03%
Transmittance 710 nm to 1100 nm (maximum) [3]: 0.28%

Solubility to organic solvent: Cyclohexanone [1]: 10%< mass %
Solubility to organic solvent: MIBK [1]: 10%< mass %
Solubility to organic solvent: Toluene [1]: 10%< mass %
430 nm to 600 nm Average transmittance [2, 4]: 95%
Is value (nd(B)×(λa-λc)) [2, 4]: 110.9
λa [2, 4]: 688 nm
λa − λc [2, 4]: 71 nm
λb [2, 4]: 718 nm
λb − λa [2, 4]: 30 nm
λc [2, 4]: 617 nm
λmax [2, 4]: 705 nm
430 nm to 600 nm Average transmittance [2, 5]: 95.7%
Is value (nd(B)×(λa-λc)) [2, 5]: 112.6
λa [2, 5]: 693 nm
λa − λc [2, 5]: 69 nm
λb [2, 5]: 723 nm
λb − λa [2, 5]: 30 nm
λc [2, 5]: 624 nm
λmax [2, 5]: 709 nm
430 nm to 600 nm Average transmittance [2, 6]: 96.8%
Is value (nd(B)×(λa-λc)) [2, 6]: 112.8
λa [2, 6]: 693 nm
λa − λc [2, 6]: 69 nm
λb [2, 6]: 723 nm
λb − λa [2, 6]: 30 nm
λc [2, 6]: 624 nm
λmax [2, 6]: 705 nm
430 nm to 600 nm Average transmittance [2, 7]: 95.9%
Is value (nd(B)×(λa-λc)) [2, 7]: 111.2
λa [2, 7]: 693 nm
λa − λc [2, 7]: 68 nm
λb [2, 7]: 723 nm
λb − λa [2, 7]: 30 nm
λc [2, 7]: 625 nm
λmax [2, 7]: 709 nm
Compound: CC(CCC(C(=O)Nc1cc2c(cc1C1=C([O-])C(=c3cc4c(cc3NC(=O)C(CCC(C)CC(C)(C)C)C(C)CC(C)(C)C)=[N+](C)C(C)C4(C)C)C1=O)C(C)(C)C(C)N2C)C(C)CC(C)(C)C)CC(C)(C)C (stereo not drawn) [Example A11-4]
